This assay addresses Phosphatidylinositol 3-kinase catalytic subunit type 3 (Homo sapiens, UniProt Q8NEB9). As to the kind of experiment: Biochemical Assay: Dilution series of compounds of the invention were prepared in DMSO at 100 times the final assay concentration (n1=n0/3 in 10 points). The compounds were further diluted to 4 times the assay concentration in assay buffer (Life technologies buffer Q, PV5125, diluted 5 times supplemented with 2 mM DTT and 2 mM MnCl2). 2.5 μl of the diluted compounds were added to a 384 well assay plate followed by 2.5 μl of 16.5 nM Vps34 enzyme (Life technologies, PV5126). Enzyme and compounds were pre-incubated at rt for 15 min. Then 5 μl of substrate mix containing 20 μM ATP (Life technologies, PV3227) and 200 μM PI:PS substrate (Life technologies, PV5122) in assay buffer was added to the wells containing compound and enzyme. Mixing was performed by pipetting several times. The reaction was incubated at room temperature for 1 h. Then 5 μl stop-detection mix, prepared as described in the Adapta kinase assay kit instructions (Life technologies, PV5099) containing Adapta Eu-anti-ADP antibody (2.3 nM), Alexa Fluor 647 ADP tracer (9 nM) and EDTA (30 mM) in TR-FRET buffer, was added to quench the reaction. Mixing was performed by pipetting several times. The assay plate was then incubated at room temperature for 30 min and read with Artemis micro plate reader. Percent inhibition of the compounds as compared to DMSO treated control samples was calculated.

The structures appear in SMILES notation.

Chain of Phosphatidylinositol 3-kinase catalytic subunit type 3 (Q8NEB9 whole entry): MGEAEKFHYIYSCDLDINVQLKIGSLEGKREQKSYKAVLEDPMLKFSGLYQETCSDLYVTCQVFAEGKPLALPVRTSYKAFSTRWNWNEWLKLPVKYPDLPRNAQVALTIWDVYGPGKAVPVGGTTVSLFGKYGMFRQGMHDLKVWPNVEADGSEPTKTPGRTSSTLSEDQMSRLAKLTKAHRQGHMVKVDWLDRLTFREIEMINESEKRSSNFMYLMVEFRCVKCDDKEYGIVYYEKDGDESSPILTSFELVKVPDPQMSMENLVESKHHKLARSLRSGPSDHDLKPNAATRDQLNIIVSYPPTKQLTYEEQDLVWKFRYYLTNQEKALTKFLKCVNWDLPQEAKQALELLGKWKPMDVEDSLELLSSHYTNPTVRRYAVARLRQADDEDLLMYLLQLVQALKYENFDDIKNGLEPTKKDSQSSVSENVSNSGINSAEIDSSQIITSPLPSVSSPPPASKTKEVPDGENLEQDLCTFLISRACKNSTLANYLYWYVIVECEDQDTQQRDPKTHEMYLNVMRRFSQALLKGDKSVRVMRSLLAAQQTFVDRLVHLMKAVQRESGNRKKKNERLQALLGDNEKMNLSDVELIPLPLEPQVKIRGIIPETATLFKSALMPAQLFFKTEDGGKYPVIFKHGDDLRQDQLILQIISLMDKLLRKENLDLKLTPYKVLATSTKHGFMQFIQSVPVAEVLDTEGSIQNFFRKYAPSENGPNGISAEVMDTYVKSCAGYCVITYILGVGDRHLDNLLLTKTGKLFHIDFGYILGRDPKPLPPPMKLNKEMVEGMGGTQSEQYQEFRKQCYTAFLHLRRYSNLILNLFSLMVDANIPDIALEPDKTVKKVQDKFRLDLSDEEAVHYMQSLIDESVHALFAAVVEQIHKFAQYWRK

By IC50 is commonly meant the midpoint of a concentration-inhibition curve. For the compound `CC(=O)Nc1cc(-c2cc(-c3ccccc3Cl)[nH]c(=O)c2)ccn1`, the IC50 was less than 5 nM.

(Values after ChEMBL document CHEMBL5728921, “Pyridylpyridone compounds” (2022).)
